In brackets after ≈: the same amount, converted by molar mass. Entries after “also recorded” stand apart in the source; their conditions may differ.
Tests used:
[1] = system: Staphylococcus aureus ATCC43300 (MRSA); assay: MIC, MRSA ATCC43300 (CO-ADD protocol); type: cell-based; details: for MIC: Staphylococcus aureus, Staphylococcus aureus ATCC43300 (MRSA), mean (n = 2), read-out: MIC (µg/mL) MRSA; for anti-MRSA activity (in words): result in words
Description: Additional antimicrobial evaluation against Staphylococcus aureus MRSA (ATCC43300), Pseudomonas aeruginosa (ATCC27853), Escherichia coli (ATCC25922), Klebsiella pneumoniae (ATCC700603), Acinetobacter baumannii (ATCC19606), Candida albicans (ATCC90028), and Cryptococcus neoformans (ATCC208821) was undertaken at the Community for Open Antimicrobial Drug Discovery at The University of Queensland (Australia) according to their standard protocols. For antimicrobial assays, the tested strains were cultured in either Luria broth (LB) (In Vitro Technologies, USB75852, Noble Park North, Australia), nutrient broth (NB) (Becton Dickson, 234000, Macquarie Park, Australia), or cation-adjusted MHB at 37 °C overnight. A sample of culture was then diluted 40-fold in fresh MHB and incubated at 37 °C for 1.5−2 h. The compounds were serially diluted 2-fold across the wells of 96-well plates (Corning 3641, Tewksbury, MA, USA, nonbinding surface), with compound concentrations ranging from 0.015 to 64 μg/mL, plated in duplicate. The resultant mid log phase cultures were diluted to the final concentration of 1 × 10^6 CFU/mL; then, 50 μL was added to each well of the compound containing plates giving a final compound concentration range of 0.008 to 32 μg/mL and a cell density of 5 × 10^5 CFU/mL. All plates were then covered and incubated at 37 °C for 18 h. Resazurin was added at 0.001% final concentration to each well and incubated for 2 h before MICs were read by eye.
(§1) Colistin and vancomycin were used as positive bacterial inhibitor standards for Gram-negative and Gram-positive bacteria, respectively. Fluconazole was used as a positive fungal inhibitor standard for C. albicans and C. neoformans. The antibiotics were provided in 4 concentrations, with 2 above and 2 below its MIC value, and plated into the first 8 wells of column 23 of the 384-well NBS plates. The quality control (QC) of the assays was determined by the antimicrobial controls and the Z′-factor (using positive and negative controls).

human red blood cells = assay: Hemolytic assay; type: cell-based; details: for HC10: concentration at 10% hemolytic activity on human red blood cells, mean (n = 2); for hemolytic activity (in words): human red blood cells, result in words
Description: Human whole blood was washed three times with 3 volumes of 0.9% NaCl and then resuspended in same to a concentration of 0.5 × 10^8 cells/mL, as determined by manual cell count in a Neubauer hemocytometer. The washed cells were then added to the 384-well compound-containing plates for a final volume of 50 μL. After a 10 min shake on a plate shaker the plates were then incubated for 1 h at 37 °C. After incubation, the plates were centrifuged at 1000 g for 10 min to pellet cells and debris, 25 μL of the supernatant was then transferred to a polystyrene 384-well assay plate. Hemolysis was determined by measuring the supernatant absorbance at […] (OD405). The absorbance was measured using a Tecan M1000 Pro monochromator plate reader. HC10 and HC50 (concentration at 10% and 50% hemolysis, respectively) were calculated by curve fitting the inhibition values vs. log(concentration) using a sigmoidal dose–response function with variable fitting values for top, bottom and slope.

[2] = HEK293 cytotoxicity assay (resazurin); type: cell-based, human; details: human; concentration at 50% cytotoxicity on HEK293 cells; mean (n = 2)
Description: (§2) For the HEK293 cytotoxicity assay, cells were counted manually in a Neubauer hemocytometer and plated at a density of 5000 cells/well into each well of the 384-well plates containing the 25× (2 μL) concentrated compounds. The medium used was Dulbecco’s modified eagle medium (DMEM) supplemented with 10% fetal bovine serum (FBS). Cells were incubated together with the compounds for 20 h at 37 °C, 5% CO2. To measure cytotoxicity, 5 μL (equals 100 μM final) of resazurin was added to each well after incubation, and incubated for further 3 h at 37 °C with 5% CO2. After final incubation fluorescence intensity was measured as Fex 560/10 nm, em 590/10 nm (F560/590) using a Tecan M1000 Pro monochromator plate reader. CC50 values (concentration at 50% cytotoxicity) were calculated by normalizing the fluorescence readout, with 74 μg/mL tamoxifen as negative control (0%) and normal cell growth as positive control (100%). The concentration-dependent percentage cytotoxicity was fitted to a dose response function (using Pipeline Pilot) and CC50 values determined.

S. aureus (ATCC25923) = assay: Membrane depolarization assay, DiSC3(5); type: cell-based, Staphylococcus aureus; details: preliminary investigation; result in words
Description: S. aureus (ATCC25923) was grown in MH II broth for 24 h at 37 °C. After reaching an OD600 nm of 0.5, cells were centrifuged (3600× g for 20 min at 20 °C) and washed twice with buffered sucrose solution (250 mM), magnesium sulfate solution (25 mM) and Hepes (5 mM) (pH = 7.2). The fluorescent dye […] DiSC3(5) was added to a final concentration of 5 µM and was incubated with the suspensions for 5 min at 37 °C to allow the dye incorporation into the polarized membranes. 10 µL of compound was then added to 90 µL of the fluorescent suspensions at different concentrations ranging from 200 µM to 25 µM. Fluorescence measurements were recorded for 20 minutes (excitation wavelength 622 nm, emission wavelength 690 nm).
The difference in the relative fluorescence values (RFU) from the control containing only buffer and the control containing bacteria treated only with cetyltrimethylammonium bromide ([…]) is taken as the maximum level of depolarization. Assays were performed in three independent experiments. Blank determined by using no compound. Maximum RFU determined by using CTAB 0.1%
Equation used: (RFU of the compound−RFU of the blank)×100/RFU of the maximum

[3] = system: Cryptococcus neoformans ATCC208821; assay: Antifungal MIC, C. neoformans; type: cell-based; details: for MIC: Cryptococcus neoformans ATCC208821, mean (n = 2); for antifungal activity towards C. neoformans (in words): result in words
Description: For the antifungal assay, fungi strains were cultured for 3 days on yeast extract-peptone dextrose (YPD) agar at 30 °C. A yeast suspension of 1 × 10^6 to 5 × 10^6 CFU/mL was prepared from five colonies. These stock suspensions were diluted with yeast nitrogen base (YNB) (Becton Dickinson, 233520) broth to a final concentration of 2.5 × 10^3 CFU/mL. The compounds were serially diluted 2-fold across the wells of 96-well plates (Corning 3641, nonbinding surface), with compound concentrations ranging from 0.015 to 64 μg/mL and final volumes of 50 μL, plated in duplicate. Then, 50 μL of the fungi suspension that was previously prepared in YNB broth to the final concentration of 2.5 × 10^3 CFU/mL was added to each well of the compound-containing plates, giving a final compound concentration range of 0.008 to 32 μg/mL. Plates were covered and incubated at 35 °C for 36 h without shaking. C. albicans MICs were determined by measuring the absorbance at OD530. For C. neoformans, resazurin was added at 0.006% final concentration to each well and incubated for a further 3 h before MICs were determined by measuring the absorbance at OD570–600.
as §1

[4] = system: Staphylococcus aureus ATCC25923; assay: MIC by broth dilution, S. aureus ATCC25923; type: cell-based; details: for MIC: Staphylococcus aureus ATCC25923, mean (n = 3)
Description: The susceptibility of S. aureus (ATCC25923) to antibiotics and compounds was determined in microplates using the standard broth dilution method in accordance with the recommendations of the Comité de l’AntibioGramme de la Société Française de Microbiologie (CA-SFM) as previously described. Briefly, the minimal inhibitory concentrations (MICs) were determined with an inoculum of 10^5 CFU in 200 µL of Mueller-Hinton broth (MHB) containing two-fold serial dilutions of each drug. […] To determine all MICs, the measurements were independently repeated in triplicate.

[5] = system: HEK293 human embryonic kidney cells; assay: HEK293 cytotoxicity assay (resazurin); type: cell-based; details: HEK293; result in words
Description: as §2

Row | SMILES | MIC [1] [µg/mL] | melting point [°C] | HC10 (human red blood cells) [µg/mL] | CC50 at 20 h [2] [µg/mL] | membrane depolarization of S. aureus (S. aureus (ATCC25923)) | MIC [3] [µg/mL] | MIC [4] [µg/mL] | activity against S. aureus (in words) ([4]; result in words) | anti-MRSA activity (in words) [1] | hemolytic activity (in words) (human red blood cells) | cytotoxicity (in words) [5] | antifungal activity towards C. neoformans (in words) [3]
1 | Fc1ccc2c(-c3cncn3Cc3ccc(I)cc3)c[nH]c2c1 [Compound 6, 6-Fluoro-3-(1-(4-iodobenzyl)-1H-imidazol-5-yl)-1H-indole] | > 32 | 191 to 192 | >32 | 15.6 (≈ 37.4 µM) | only very weak membrane depolarization | 32 (≈ 76.7 µM) | 6.25 (≈ 15 µM) | strong activity | – | – | – | –
2 | COc1ccc(CCn2cncc2-c2c[nH]c3ccc(Cl)cc23)cc1 [Compound 26, 5-Chloro-3-(1-(4-methoxyphenethyl)-1H-imidazol-5-yl)-1H-indole] | ≤ 0.25 | – | >32 | > 32 | – | > 32 | > 200 | – | promising non-toxic selective anti-MRSA compounds | lacked cytotoxic or hemolytic properties | lack of cytotoxicity; also recorded: lacked cytotoxic or hemolytic properties | –
3 | COc1ccc(OC)c(CCn2cncc2-c2c[nH]c3ccc(Cl)cc23)c1 [Compound 32, 5-Chloro-3-(1-(2,5-dimethoxyphenethyl)-1H-imidazol-5-yl)-1H-indole] | – | – | >32 | > 32 | – | > 32 | 100 (≈ 262 µM) | – | promising non-toxic selective anti-MRSA compounds | lacked cytotoxic or hemolytic properties | lack of cytotoxicity; also recorded: lacked cytotoxic or hemolytic properties | –
4 | COc1ccc2c(-c3cncn3CCc3ccccc3)c[nH]c2c1 [Compound 57, 6-Methoxy-3-(1-phenethyl-1H-imidazol-5-yl)-1H-indole] | > 32 | 48 to 49 | >32 | > 32 | – | ≤ 0.25 | > 200 | – | – | lack of cytotoxicity and hemolytic activity | lack of cytotoxicity and hemolytic activity | non-toxic selective antifungals
5 | c1ccc(-c2cncn2Cc2c[nH]c3ccccc23)cc1 [Compound 111, 3-((5-Phenyl-1H-imidazol-1-yl)methyl)-1H-indole] | 16 (≈ 58.5 µM) | 57 to 58 | >32 | > 32 | – | ≤ 0.25 | 50 (≈ 183 µM) | – | – | lack of cytotoxicity and hemolytic activity | lack of cytotoxicity and hemolytic activity | non-toxic selective antifungals

From paper PMC9598367, “Discovery and Preliminary Structure-Activity Investigation of 3-Substituted-1H-imidazol-5-yl-1H-indoles with In Vitro Activity towards Methicillin-Resistant Staphylococcus aureus” (Antibiotics, 2022)
